Structures can show the parent of a compound that is named as a salt. Where two headings read alike, the source gives them in different places.
What was measured:
[1] = target: T1, serotonin re-uptake (Rattus norvegicus, UniProt P31652); experiment: Serotonin re-uptake inhibitory activity (synaptosome, [3H]5-HT); format: biochemical
T1 construct: synaptosome prepared from rat whole brains except the cerebellums; from tissue; host or cells: synaptosomes from rat whole brain except the cerebellum
Procedure: Serotonin re-uptake inhibitory activity was determined using synaptosome prepared from rat whole brains except the cerebellums. Briefly, 10 μl of DMSO solution-dissolved test substance (control group; DMSO solution alone) was added to 1 ml of synaptosome and incubated for 5 min at 37° C. (in the control, DMSO alone was added to the synaptosome and incubated at 4° C.). Furthermore, 10 μl of [^3H]5-HT solution (final concentration: 10 μM as a total concentration of 5-HT, 100 nM as [^3H]5-HT) was added and incubated for 5 min at 37° C. Then 4 ml of ice-cold saline was added to stop the response. The response solution was filtered, 4 ml of saline was added, and the solution was once again filtered. Furthermore, 5 ml of Pico-Fluor was added, then ^3H levels on filter papers were counted by a liquid scintillation counter. Concentrations of test compounds to inhibit serotonin re-uptake by 50% (IC50) were calculated.

[2] = target: T2, acetylcholinesterase (Mus musculus, UniProt P21836); experiment: biochemical
T2 construct: phosphate buffer solution containing the brain homogenate; from tissue; host or cells: mouse whole brain homogenate
T2 sequence (P21836 32-614): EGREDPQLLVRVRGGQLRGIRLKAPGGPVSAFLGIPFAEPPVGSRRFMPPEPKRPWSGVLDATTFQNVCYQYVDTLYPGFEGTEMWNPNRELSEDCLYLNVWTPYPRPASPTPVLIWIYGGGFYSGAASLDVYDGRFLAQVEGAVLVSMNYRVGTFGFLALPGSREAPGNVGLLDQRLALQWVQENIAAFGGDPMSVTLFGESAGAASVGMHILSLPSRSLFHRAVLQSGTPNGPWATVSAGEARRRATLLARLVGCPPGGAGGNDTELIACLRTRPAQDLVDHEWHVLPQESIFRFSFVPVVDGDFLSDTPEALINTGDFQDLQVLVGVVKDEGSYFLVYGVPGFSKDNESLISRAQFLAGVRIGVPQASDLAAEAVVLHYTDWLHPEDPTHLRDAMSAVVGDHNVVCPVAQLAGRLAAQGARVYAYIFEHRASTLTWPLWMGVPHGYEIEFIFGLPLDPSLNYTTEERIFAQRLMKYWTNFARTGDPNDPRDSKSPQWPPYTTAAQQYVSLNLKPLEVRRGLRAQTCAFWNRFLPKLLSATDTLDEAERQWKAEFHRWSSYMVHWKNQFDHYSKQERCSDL

[3] = synaptosome from rat whole brain except cerebellum, [3H]5-HT, 37° C., read-out: IC50 (nM) Serotonin re-uptake inhibitory activity
[4] = mouse whole brain homogenate, acetylthiocholine/DTNB, absorbance 412 nm, read-out: IC50 (nM) Acetylcholinesterase inhibitory activity

T1 sequence (P31652 whole entry): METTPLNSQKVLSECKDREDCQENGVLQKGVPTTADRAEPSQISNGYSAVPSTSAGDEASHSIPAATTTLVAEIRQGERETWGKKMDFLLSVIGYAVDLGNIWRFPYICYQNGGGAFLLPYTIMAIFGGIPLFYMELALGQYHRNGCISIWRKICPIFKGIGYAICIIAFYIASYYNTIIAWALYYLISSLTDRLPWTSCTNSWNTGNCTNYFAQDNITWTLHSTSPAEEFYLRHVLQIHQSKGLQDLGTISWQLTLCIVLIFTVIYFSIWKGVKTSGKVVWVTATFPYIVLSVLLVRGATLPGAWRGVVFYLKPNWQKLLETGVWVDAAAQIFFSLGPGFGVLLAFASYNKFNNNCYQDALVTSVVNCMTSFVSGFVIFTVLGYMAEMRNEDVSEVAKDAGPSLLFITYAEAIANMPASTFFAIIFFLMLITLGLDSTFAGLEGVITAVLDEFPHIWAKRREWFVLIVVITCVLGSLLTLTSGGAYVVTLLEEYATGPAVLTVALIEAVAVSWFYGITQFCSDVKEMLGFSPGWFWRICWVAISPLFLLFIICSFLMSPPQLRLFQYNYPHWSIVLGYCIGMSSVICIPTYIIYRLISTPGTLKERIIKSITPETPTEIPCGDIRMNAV

4-[3-(4-Chlorophenoxy)-1-dimethylaminopropyl]-2-methylphenyl dimethylcarbamate hydrochloride [Test Compound 185]
IC50 [1, 3]: 170 nM

CN(C)C(=O)Oc1ccc(C(CCOc2ccc([N+](=O)[O-])cc2Cl)N(C)C)cc1 (stereo not shown) [Test Compound 131, 4-[3-(2-Chloro-4-nitrophenoxy)-1-dimethylaminopropyl]phenyl dimethylcarbamate hydrochloride]
IC50 [2]: 57 nM
IC50 [1, 3]: 129 nM

Cc1cc(OCCC2c3ccc(OC(=O)N(C)C)cc3C=CCN2C)ccc1Cl (stereo not shown) [Test Compound 194, 2-Methyl-1-[2-(4-chloro-3-methylphenoxy)-ethyl]-2,3-dihydro-1H-benzo[c]azepin-7-yl dimethylcarbamate hydrochloride]
IC50 [2]: 103 nM
IC50 [1, 3]: 61 nM

CNC(CCOc1ccc(Cl)cc1)c1ccc(OC(=O)N(C)C)cc1 (stereo not shown) [Test Compound 16, 4-[3-(4-Chlorophenoxy)-1-methylaminopropyl]phenyl dimethylcarbamate hydrochloride]
IC50 [2]: 210 nM
IC50 [1, 3]: 493 nM

CNC(CCOc1ccc(Cl)c([N+](=O)[O-])c1)c1cccc(OC(=O)N(C)C)c1 (stereo not shown) [Test Compound 203, 3-[3-(4-Chloro-3-nitrophenoxy)-1-methylaminopropyl]phenyl dimethylcarbamate hydrochloride]
IC50 [2]: 49 nM
IC50 [1, 3]: 40 nM

CN[C@@H](CCOc1ccc([N+](=O)[O-])cc1)c1ccc(OC(=O)N(C)C)c(C)c1 [Test Compound 183, (S)-4-[3-(4-Nitrophenoxy)-1-methylaminopropyl]-2-methylphenyl dimethylcarbamate hydrochloride]
IC50 [2]: 26 nM
IC50 [1, 3]: 67 nM

CN(C)C(=O)Oc1ccc2c(c1)C=CCN(C)C2CCOc1ccc([N+](=O)[O-])cc1 (stereo not shown) [Test Compound 192, 2-Methyl-1-[2-(4-nitrophenoxy)-ethyl]-2,3-dihydro-1H-benzo[c]azepin-7-yl dimethylcarbamate hydrochloride]
IC50 [1, 3]: 63 nM

CNC(CCOc1ccc(F)cc1)c1ccc(OC(=O)N(C)C)cc1 (stereo not shown) [Test Compound 30, 4-[3-(4-Fluorophenoxy)-1-methylaminopropyl]phenyl dimethylcarbamate hydrochloride]
IC50 [2]: 790 nM
IC50 [1, 3]: 594 nM

CN(C)C(=O)Oc1ccc(C(CCOc2c(F)c(F)c(F)c(F)c2F)N(C)C)cc1 (stereo not shown) [Test Compound 181, 4-[3-(Pentafluorophenoxy)-1-dimethylaminopropyl]phenyl dimethylcarbamate hydrochloride]
IC50 [2]: 198 nM
IC50 [1, 3]: 44 nM

CN(C)C(=O)Oc1ccc2c(c1)C=CCN(C)[C@@H]2CCOc1ccc([N+](=O)[O-])cc1 [Test Compound 199, 2-Methyl-[[(1S)]] (1R)-[2-(4-nitrophenoxy)-ethyl]-2,3-dihydro-1H-benzo[c]azepin-7-yl dimethylcarbamate hydrochloride]
IC50 [1, 3]: 6 nM

4-[3-(4-Methylthiophenoxy)-1-methylaminopropyl]phenyl dimethylcarbamate hydrochloride [Test Compound 174]
IC50 [1, 3]: 85 nM

(S)-4-[3-(4-Methylthiophenoxy)-1-methylaminopropyl]phenyl dimethylcarbamate hydrochloride [Test Compound 176]
IC50 [1, 3]: 56 nM

CNC(CCOc1ccc2ncccc2c1)c1ccc(OC(=O)N(C)C)cc1 (stereo not shown) [Test Compound 180, 4-[3-(Quinolin-6-yloxy)-1-methylaminopropyl]phenyl dimethylcarbamate hydrochloride]
IC50 [2]: 111 nM
IC50 [1, 3]: 104 nM

CN(C)C(=O)Oc1ccc(C(CCOc2ccc([N+](=O)[O-])cc2)N(C)C)cc1 (stereo not shown) [Test Compound 89, 4-[1-Dimethylamino-3-(4-nitrophenoxy)propyl]phenyl dimethylcarbamate hydrochloride]
IC50 [2]: 87 nM
IC50 [1, 3]: 319 nM

CN[C@@H](CCOc1ccc([N+](=O)[O-])cc1)c1cccc(OC(=O)N(C)C)c1 [Test Compound 125, (S) -3-[3-(4-Nitrophenoxy)-1-methylaminopropyl]phenyl dimathylcarbamate hydrochloride]
IC50 [2, 4]: 19 nM
IC50 [1, 3]: 841 nM

4-[3-(4-Methylthiophenoxy)-1-dimethylaminopropyl]phenyl dimethylcarbamate hydrochloride [Test Compound 175]
IC50 [1, 3]: 380 nM

CN(C)C(=O)Oc1ccc([C@@H](CCOc2ccc([N+](=O)[O-])cc2)N(C)C)cc1 [Test Compound 102, (R)-4-[1-Dimethylamino-3-(4-nitrophenoxy)propyl]phenyl dimethylcarbamate hydrochloride]
IC50 [2]: 170 nM
IC50 [1, 3]: 167 nM

CN(C)C(=O)Oc1ccc(C(CCOc2cccc(F)c2)N(C)C)cc1 (stereo not shown) [Test Compound 70, 4-[1-Dimethylamino-3-(3-fluorophenoxy)propyl]phenyl dimethylcarbamate hydrochloride]
IC50 [2]: 90 nM
IC50 [1, 3]: 86 nM

CN(C)C(=O)Oc1ccc2c(c1)C=CCN(C)[C@H]2CCOc1ccc([N+](=O)[O-])cc1 [Test Compound 200, 2-Methyl-(1S)-[2-(4-nitrophenoxy)-ethyl]-2,3-dihydro-1H-benzo[c]azepin-7-yl dimethylcarbamate hydrochloride]
IC50 [1, 3]: 930 nM

CN(C)C(=O)Oc1ccc2c(c1)CCCN(C)C2CCOc1ccc([N+](=O)[O-])cc1Cl (stereo not shown) [Test Compound 193, 2-Methyl-1-[2-(2-chloro-4-nitrophenoxy)-ethyl]-1,3,4,5-tetrahydro-1H-benzo[c]azepin-7-yl dimethylcarbamate hydrochloride]
IC50 [2, 4]: 24 nM
IC50 [1, 3]: 680 nM

CN[C@@H](CCOc1ccc(Cl)cc1)c1ccc(OC(=O)N(C)C)cc1 [Test Compound 82, (S)-4-[3-(4-Chlorophenoxy)-1-methylaminopropyl]phenyl dimethylcarbamate hydrochloride]
IC50 [2]: 83 nM
IC50 [1, 3]: 377 nM

CN[C@H](CCOc1ccc(Cl)cc1)c1ccc(OC(=O)N(C)C)cc1 [Test Compound 62, (R)-4-[3-(4-Chlorophenoxy)-1-methylaminopropyl]phenyl dimethylcarbamate hydrochloride]
IC50 [2]: 270 nM
IC50 [1, 3]: 343 nM

2-Methyl-(1R)-[2-(4-methylthiophenoxy)-ethyl]-2,3-dihydro-1H-benzo[c]azepin-7-yl dimethylcarbamate hydrochloride [Test Compound 197]
IC50 [1, 3]: 6 nM

4-[3-(4-Methylthiophenoxy)-1-dimethylaminopropyl]-2-methylphenyl dimethylcarbamate hydrochloride [Test Compound 186]
IC50 [1, 3]: 62 nM

4-[3-(4-Nitrophenoxy)-1-dimethylaminopropyl]-2-methylphenyl dimethylcarbamate hydrochloride [Test Compound 182]
IC50 [1, 3]: 44 nM

(R)-4-[3-(4-Methylthiophenoxy)-1-methylaminopropyl]phenyl dimethylcarbamate hydrochloride [Test Compound 177]
IC50 [1, 3]: 120 nM

2-Methyl-1-[2-(4-methylthiophenoxy)-ethyl]-2,3-dihydro-1H-benzo[c]azepin-7-yl dimethylcarbamate hydrochloride [Test Compound 196]
IC50 [1, 3]: 18 nM

Cc1cc(OCCC2c3cccc(OC(=O)N(C)C)c3C=CCN2C)ccc1Cl (stereo not shown) [Test Compound 202, 2-Methyl-[2-(4-chloro-3-methylphenoxy)-ethyl]-2,3-dihydro-1H-benzo[c]azepin-6-yl dimethylcarbamate hydrochloride]
IC50 [1]: 900 nM

Reference: patent US7504393B2, “Benzylamine analogues” (priority 2001, dated 2009)
